Values quoted from earlier work, collected in patent US12667579B2, “Pharmaceutical compositions for clinical nutrition” (BAXTER INTERNATIONAL INC., priority 2021, dated 2026).

Legend:
[1] = compounded with 96 mEq/L of calcium chloride
[2] = test system: serum alkaline phosphatases
[3] = ingested orally or enterally

| Compound | concentration up to which SGP is stable in compounded solutions [1] | amount hydrolyzed each day ([2]; individuals with normal serum alkaline phosphatase, hydrolysis completely in plasma) | plasma concentration at which maximum hydrolysis occurs ([2]; plasma, hydrolysis to inorganic phosphate and glycerol) | solubility in acetone (acetone) | solubility in ethanol (ethanol) | solubility in water (water) | share of ingested aluminum reaching the blood stream [3] |
| --- | --- | --- | --- | --- | --- | --- | --- |
| sodium glycerophosphate [SGP] | up to 120 mmol/L | 12 to 15 mmol | > 700 µM | essentially insoluble | essentially insoluble | freely soluble | – |
| [Al] [aluminum] | – | – | – | – | – | – | < 1% |
